Experimental data as given in US11041000B2, “Peptide inhibitors of interleukin-23 receptor and their use to treat inflammatory diseases” (priority 2019, dated 2021).
pIC50: −log10 of the molar value. Bridge positions count the residues as written; N and C are the ends. Square brackets hold non-standard residues; d marks the D form. Peptide text beside a SMILES is read from it. Trp(7-Me) = Cc1cccc2c(C[C@H](N)C(=O)O)c[nH]c12; 2Nal = N[C@@H](Cc1ccc2ccccc2c1)C(=O)O; AEF = NCCOc1ccc(C[C@H](N)C(=O)O)cc1; Cit = NC(=O)NCCC[C@H](N)C(=O)O; Pen = CC(C)(S)[C@H](N)C(=O)O; αMeK = C[C@](N)(CCCCN)C(=O)O; Aib = CC(C)(N)C(=O)O

Tests used:
[1] = Stability in simulated gastric fluid (SGF); format: in vitro ADME; details: simulated gastric fluid with porcine pepsin, pH 2, 37° C., 20 μM peptide
Method: SGF was prepared by adding 20 mg NaCl, 32 mg porcine pepsin (MP Biochemicals, catalog 02102599), and 70 μl HCl to 10 ml water (final pH=2). Aliquots of SGF (0.5 ml each) were pre-warmed at 37° C. To start the reaction, 1 μl of peptide stock solution (10 mM in DMSO) was added to 0.5 ml SGF and thoroughly mixed such that the final peptide concentration was 20 μM. The reactions were incubated at 37° C. with gentle shaking. At each time point (0, 15, 30, 60 min) 50 μl aliquots were removed and added to 200 ul acetonitrile containing 0.1% formic acid to quench the reaction. Samples are stored at 4° C. until the end of the experiment and centrifuged at 10,000 rpm for 5 minutes. Aliquots of the supernatant were removed, diluted 1:1 into distilled water containing internal standard, and analyzed by LCMS/MS. Percent remaining at each timepoint was calculated based on the peak area response ratio of test to compound to internal standard. Time 0 was set to 100%, and all later timepoints were calculated relative to time 0. Half-lives were calculated by fitting to a first-order exponential decay equation using GraphPad.

[2] = tested on: Natural killer (NK) cells; test: NK cell based assay (IL-23-induced IFNγ); details: primary human NK cells, IL-23 plus IL-18 10 ng/mL, IFNγ in supernatant after 20 to 24 hours
Method: Natural killer (NK) cells, purified from human peripheral blood of healthy donors by negative selection (Miltenyi Biotech, Cat #130-092-657), were cultured in complete media (RPMI 1640 containing 10% FBS, L-glutamine and penicillin-streptomycin) in the presence of IL-2 (RnD, Cat #202-IL-010/CF) at 25 ng/mL. After 7 days, cells were centrifuged, and resuspended in complete media at 1E6 cells/mL. […] After 20 to 24 hours, IFNγ in the supernatant was quantified using Quantikine ELISA (RnD, Cat #DIF50).

[3] = Stability in simulated intestinal fluid (SIF); format: in vitro ADME; details: simulated intestinal fluid with pancreatin, pH 6.8, 37° C., matrix is 100 fold dilution of standard SIF concentration, read-out: SIF t½ (converted)
[4] = Stability in human fecal homogenate; format: in vitro ADME; details: 20% fecal homogenate (supernatant), pH 6.8, 20% human fecal homogenate, anaerobic, 37° C., read-out: t½: Human Feces anaerobic (converted)
Method: (§1) Centrifuged the homogenate at 2800×g for 15 min. The supernatant is taken out and used for incubations. […] The final test compound concentration was 20 μM.

[5] = Stability in cynomolgus monkey fecal homogenate; format: in vitro ADME; details: 20% fecal homogenate (supernatant), pH 6.8, 20% cynomolgus monkey fecal homogenate, anaerobic, 37° C., read-out: t½: Monkey Feces anaerobic (converted)
Method: as §1

[6] = Stability in rat plasma; format: in vitro ADME; details: both sexes, SD rat plasma, EDTA, 37° C., read-out: t½: Rat Plasma EDTA (converted)
Method: Peptides of interest (20 μM) were incubated with pre-warmed rat plasma (SD rat, mixed gender pooled, EDTA, filtered through 0.22 μm, BioreclamationIVT) at 37° C. […] Quenched samples were stored at 4° C. until the end of the experiment and centrifuged at 4,000 rpm for 10 minutes. The supernatant were diluted 1:1 with deionized water and analyzed using LC-MS. Percentage remaining at each time point was calculated based on the peak area ratio (analyte over internal standard) relative to the initial level at time zero. Half-lives were calculated by fitting to a first-order exponential decay equation using GraphPad.

Structure (SMILES)	SGF t½ [1]	pIC50 [2]	half-life at 20 μM [3]	half-life at 20 μM [4]	half-life at 20 μM [5]	half-life at 20 μM [6]
CC(=O)NCCCC[C@H](NC(=O)[C@](C)(CCCCN)NC(=O)[C@H](Cc1ccc2ccccc2c1)NC(=O)[C@H](Cc1ccc(OCCN)cc1)NC(=O)[C@H]1NC(=O)[C@H](CCCNC(N)=O)NC(=O)[C@H](Cc2c[nH]c3c(C)cccc23)NC(=O)[C@H]([C@@H](C)O)NC(=O)[C@H](CC(N)=O)NC(=O)[C@@H](NC(C)=O)C(C)(C)SSC1(C)C)C(=O)N[C@@H](CC(N)=O)C(=O)NC(C)(C)C(N)=O [compound 264] (Ac-[Pen]NT[Trp(7-Me)][Cit][Pen][AEF][2Nal][αMeK]K(Ac)N[Aib]-NH2; disulfide 1-6)	24 h	–	–	–	–	–
CC(=O)NCCCC[C@@H]1NC(=O)[C@H](Cc2c[nH]c3c(C)cccc23)NC(=O)[C@H]([C@@H](C)O)NC(=O)[C@H](CC(N)=O)NC(=O)[C@@H](NC(C)=O)C(C)(C)SSC(C)(C)[C@@H](C(=O)N[C@@H](Cc2ccc(OCCN)cc2)C(=O)N[C@@H](Cc2ccc3ccccc3c2)C(=O)N[C@@](C)(CCCCN)C(=O)N[C@@H](CCCCNC(=O)C2CCCCC2)C(=O)N[C@@H](CC(N)=O)C(=O)N[C@H](CC(C)C)C(N)=O)NC1=O [compound 357]	–	8.42	14 h	> 24 h	> 24 h	> 24 h
